Data taken from patent US4232121A, “Process for selecting methine dyes which inhibit cell growth” (Eastman Kodak Company, priority 1978, dated 1980).
Read-outs that look alike come from different tables or passages of the source.

Tests used:
[1] = Oxidation potential (Eox) of the dye; type: physicochemical; conditions: Tables I, II, V, VI
[2] = system: Bacillus pumilus strain K-1; test: Inhibition of bacterial growth, filter paper on inoculated agar plates; type: cell-based; conditions: for zone of inhibition at 1000 µM: Bacillus pumilus
[3] = Reduction potential (ER) of the dye
[4] = system: Sea Urchin Eggs; test: Inhibition of cell division in fertilized sea urchin eggs; type: cell-based; conditions: arbitrary scale 0 to 5, 5 most active; dye 10^-5 to 10^-6 molar, 60 minutes after fertilization
Experimental: To suspensions in filtered sea water of fertilized sea urchin eggs there was added, three minutes after fertilization, methanolic solutions of the dyes in an amount sufficient to yield a final concentration of dye of between 10^-5 and 10^-6 molar. The final concentration of methanol was, at a maximum 1×10^-4 molar. The eggs were visually observed at 60 minutes after fertilization to determine if cell division and the formation of mitotic apparatus had been inhibited. A rating was assigned based on the concentration of dye required to inhibit cell division and synthesis of DNA.

[5] = not told
[6] = Solubility / stability comments on the dyes; type: physicochemical; conditions: Table IX
[7] = system: Bacillus pumilus (K-1)
[8] = system: Micrococus luteus; test: Inhibition of bacterial growth, filter paper technique; type: cell-based; conditions: Table VIII; 10^-3 molar; Gram +; 26° C./48 hrs; read-out: Area of Inhibition (diameter)
Experimental: (§1) Schleider and Schuell #740-E filter paper (12.7 mm diameter) was dipped in the dye solution, touched to the side of the beaker to removed excess dye, and placed in the center of the inoculated agar plates (prepared in (B) above). The plates were then incubated at 26° C. for […]. The plates were then examined to determine if bacterial growth had been affected by the dye-containing filter paper. With certain dyes bacterial growth was inhibited in a circular area around the filter paper. With other dyes no such area of inhibition was observed.
(§2) Cultures of various gram-negative and gram-positive bacteria were prepared in nutrient and Tryptic Soy Agar and plates were poured as described in Example 1. Methanolic solutions of cyanine dyes were prepared at 10^-3 molar and applied to the plates using the filter paper technique described in Example 1. Control plates were prepared in which the filter paper contained methanol or a 0.2 molar aqueous solution of phenol. The plates were then incubated at 26° C. or 37° C. for forty-eight hours.

[9] = system: Enterobacter aerogenes; test: as above; type: cell-based; conditions: Table VIII; 10^-3 molar; Gram -; 37° C./48 hrs
Experimental: as §1, §2

[10] = system: Escherichia coli, Strain B; test: as above; type: cell-based; conditions: Table VIII; 10^-3 molar; Gram -; 37° C./48 hrs
Experimental: as §1, §2

[11] = system: Bacillus subtilis; test: as above; type: cell-based; conditions: Table VIII, 10^-3 molar, Gram +, 26° C./48 hrs, read-out: Area of Inhibition (diameter)
Experimental: as §1, §2

[12] = system: Bacillus megaterium; test: as above; type: cell-based; conditions: Priestia megaterium; Table VIII; 10^-3 molar; Gram +; Tryptic Soy; 37° C./48 hrs; read-out: Area of Inhibition (diameter)
Experimental: as §1, §2

[13] = system: Proteus vulgaris; test: as above; type: cell-based; conditions: Table VIII; 10^-3 molar; Gram -; 37° C./48 hrs
Experimental: as §1, §2

[14] = system: Alcaligenes faecalis; test: as above; type: cell-based; conditions: Table VIII; 10^-3 molar; Gram -; 37° C./48 hrs
Experimental: as §1, §2

[15] = system: Micrococcus flavus; test: as above; type: cell-based; conditions: Micrococcus flavus; Table VIII; 10^-3 molar; Gram +; 26° C./48 hrs; read-out: Area of Inhibition (diameter)
Experimental: as §1, §2

[16] = system: Bacillus cereus; test: as above; type: cell-based; conditions: Bacillus cereus; Table VIII; 10^-3 molar; Gram +; 26° C./48 hrs; read-out: Area of Inhibition (diameter)
Experimental: as §1, §2

[17] = system: the bacteria (various gram-negative and gram-positive); test: Binding of dyes to the bacteria of Example 9; conditions: determined as in Example 8
Experimental: In addition, binding of dyes 7, 17 and 24 to the bacteria was determined as in Example 8.

CCN1C(=CC=Cc2sc3cc([N+](=O)[O-])ccc3[n+]2CC)Sc2cc([N+](=O)[O-])ccc21 [17,6,6'-dinitro]
Eox [1]: +.96 | Diameter of Inhibition ([2]; Tables V and VI, 10^-3 molar, three days): None | ER ([3]; Tables I, II, V, VI, VII, IX): -.58

CCN1C(=CC=Cc2sc3ccc4ccccc4c3[n+]2CC)Sc2ccc3ccccc3c21 [Dye 12]
Sea Urchin Eggs Activity [4]: 0 | ER [5]: -1.12 | reduction potential (ER) [5]: -1.12 volts | Comment: solubility [6]: Insoluble | % Bound [7]: 93.1%

CCN1C(=CC=Cc2n(CC)c3nc4ccccc4nc3[n+]2CC)N(CC)c2nc3ccccc3nc21 [Dye 24]
Eox [1]: +1.00 | zone of inhibition at 1000 µM [8]: 14 mm | Area of Inhibition (diameter) [9]: Slight | Area of Inhibition (diameter) [10]: No | zone of inhibition at 1000 µM [11]: 13 mm | zone of inhibition at 1000 µM [12]: 14 mm | Area of Inhibition (diameter) [13]: No | Area of Inhibition (diameter) [14]: No | zone of inhibition at 1000 µM [15]: 13 mm | zone of inhibition at 1000 µM [16]: 13.5 mm | zone of inhibition at 1000 µM ([2]; K1, 48 h, Table VIII, 10^-3 molar, Nutrient, 37° C./48 hrs, read-out: Area of Inhibition (diameter)): 13 mm | zone of inhibition at 1000 µM ([2]; K1, Table IX, 10^-3 M, read-out: Diameter of Inhibition): 13 mm | Diameter of Inhibition ([2]; Table II, 10^-4 molar, 26° C., forty-eight hours): None | Diameter of Inhibition ([2]; Table IX, 10^-4 M): None | Sea Urchin Eggs Activity [4]: 0 | binding to the bacteria (in words) [17]: found to bind | reduction potential (ER) [5]: -0.79 volts | % Bound [7]: 32.8%

CCN1C(=CC=Cc2sc3cc([N+](=O)[O-])ccc3[n+]2CC)Sc2cc([N+](=O)[O-])ccc21 [Dye 29]
Diameter of Inhibition ([2]; Table IX, 10^-3 M): None | Activity Rating ([2]; Table IX, 10^-3 M, relative to phenol concentration giving equal diameter, Dye 7 = 100 (dye 20 relative to dye 17)): 0 | Sea Urchin Eggs Activity [4]: 0 | reduction potential (ER) ([3]; list of dyes, vs. silver-silver chloride electrode, 20° C.): -0.58 volts | % Bound ([7]; Table IX): 67.9%
